Biological target: T1, Lysine-specific histone demethylase 2 (Homo sapiens, UniProt Q8NB78)
T1 sequence (Q8NB78 whole entry): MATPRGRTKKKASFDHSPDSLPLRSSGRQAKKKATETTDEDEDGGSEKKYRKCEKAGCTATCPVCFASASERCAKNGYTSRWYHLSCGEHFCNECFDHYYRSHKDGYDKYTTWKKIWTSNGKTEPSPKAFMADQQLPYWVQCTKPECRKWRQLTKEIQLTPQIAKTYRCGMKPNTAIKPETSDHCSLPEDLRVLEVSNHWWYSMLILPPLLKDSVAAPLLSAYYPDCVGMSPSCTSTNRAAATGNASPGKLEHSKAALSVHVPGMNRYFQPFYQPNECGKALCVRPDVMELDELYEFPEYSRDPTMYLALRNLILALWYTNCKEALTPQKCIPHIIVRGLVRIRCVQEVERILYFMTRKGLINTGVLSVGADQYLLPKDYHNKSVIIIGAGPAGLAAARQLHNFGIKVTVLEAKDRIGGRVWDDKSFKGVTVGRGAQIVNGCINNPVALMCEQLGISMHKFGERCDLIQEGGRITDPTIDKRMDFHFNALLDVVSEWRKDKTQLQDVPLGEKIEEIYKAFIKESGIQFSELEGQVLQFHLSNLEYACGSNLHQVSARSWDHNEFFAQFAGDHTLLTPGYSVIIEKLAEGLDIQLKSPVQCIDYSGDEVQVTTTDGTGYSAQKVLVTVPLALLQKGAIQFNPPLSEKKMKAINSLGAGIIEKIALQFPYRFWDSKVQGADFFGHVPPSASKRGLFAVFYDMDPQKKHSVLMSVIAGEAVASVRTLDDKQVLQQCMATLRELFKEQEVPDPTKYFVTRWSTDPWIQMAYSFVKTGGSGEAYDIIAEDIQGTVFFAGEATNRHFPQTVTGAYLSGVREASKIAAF
Description: Inhibition of recombinant human LSD2 using H3K4 peptide as substrate assessed as decrease in H3K4 demethylation after 1 hr by mass spectroscopic analysis

| IC50 [µM] | Compound |
| --- | --- |
| 250 | O=C(N[C@@H](CCCCNC1CC1c1ccccc1)C(=O)NCc1ccc(Cl)cc1)c1ccc(-c2ccccc2)cc1 (stereo partly drawn) |
| > 540 | O=C(N[C@@H](CCCCNC1CC1c1ccccc1)C(=O)NCc1cccc(C(F)(F)F)c1)c1ccc(-c2ccccc2)cc1 (stereo partly drawn) |
| 230 | O=C(N[C@@H](CCCCNC1CC1c1ccccc1)C(=O)NCc1ccccc1)c1ccc(-c2ccccc2)cc1 (stereo partly drawn) |
